The results in this text go back to PubChem BioAssay AID540271 (Broad Institute, 2011).

By AC50 is commonly meant the concentration giving half of the maximal activity seen.

SMILES strings stand for the structures. Calls of active or inactive are those of the source. How the calls were made is not given here.

For this assay, the system named is S. cerevisiae expressing PfHSP40, growth rescue, plate reader. Put plainly: S cerevisiae expressing PfHSP40, growth rescue, cherry pick dose confirmatory, plate reader (AID 540271).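 Further: yeast growth read after three days of incubation at 30 °C.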
Regarding `O=C(c1ccccc1)N1C(=O)C(c2ccccc2)Oc2ccccc21` (configuration not stated), the half-maximal activity concentration (AC50) was 0.937 µM.
As to `CCc1ccccc1OCC(=O)Nc1nc(-c2cccnc2)cs1`, the half-maximal activity concentration (AC50) was 1.84 µM.
With `COc1cccc(/C=N/NC(=O)c2nc(-c3ccccc3)cc(-c3ccccc3)n2)c1O` the figure was 3.51 µM; with `Cc1csc(NC(=S)Nc2cccc(Cl)c2)n1`, 11.2 µM; with `Cc1ccc2c(C)c3ccc4ccccc4c3c[n+]2c1`, 6 µM.
As for `CC1CC(C)CC(C)C(O)C(C#N)=CC=CCC(C2CCCC2C(=O)O)OC(=O)CC(O)C(C)C1` (configuration not stated), the AC50 is 5.14 µM.
As for `C=CCOC(Cn1ccnc1)c1ccc(Cl)cc1Cl` (configuration not stated), the concentration at half-maximal activity (AC50) is 1.89 µM.
As for `COc1ccc2[nH]c(=O)c(CN(Cc3cccnc3)C(=O)Nc3ccccc3)cc2c1`, the figure is 6.16 µM; as for `S=C(NCCCc1ccccc1)Nc1ccccc1Cl`, 9.44 µM.
With `O=C(CC1(O)C(=O)Nc2cc(Cl)cc(Cl)c21)c1ccncc1` (configuration not stated), the AC50 was > 12 µM (inactive).
With `O=Nc1c(O)n(Cc2ccc(Cl)c(Cl)c2)c2ccccc12` the figure was 6.59 µM; with `COc1cc(OC)c(-c2c3cc(O)c(=O)cc-3oc3cc(O)c(O)cc23)cc1OC`, 1.67 µM.
On to `O=S1OC(c2ccccc2)c2cc(Cl)ccc21` (configuration not stated), for which the AC50 was 10.8 µM.
In the case of `COc1cc2c(c(OC)c1OC)-c1ccc(O)c(=O)cc1[C@@H](NC(C)=O)CC2`, the AC50 is 1.87 µM.
For `O=c1nc(N/N=C/c2ccccn2)cn[nH]1`, the AC50 was 5.76 µM.
Consider `CC(C)CNC(=O)COC(=O)c1ccc([N+](=O)[O-])cc1Cl`, for which the AC50 is > 12 µM (inactive).
For `CCC(C)n1ncn(-c2ccc(N3CCN(c4ccc(OCC5COC(Cn6cncn6)(c6ccc(Cl)cc6Cl)O5)cc4)CC3)cc2)c1=O` (configuration not stated), the half-maximal activity concentration (AC50) is 0.129 µM.
With `COc1ccc(CNc2ncnc3sccc23)cc1`, the AC50 is 4.38 µM.
With `COc1ccc(-c2cc(C(=O)NNC(=S)NC(=O)c3c(-c4ccccc4)noc3C)[nH]n2)cc1`, the AC50 is 2.69 µM.
With `Cc1nc2ccc(NC(=O)COc3cccc(F)c3)cc2s1`, the AC50 is 10.2 µM.
On to `Oc1ccccc1-c1nnc(SCCN2CCOCC2)n1Cc1ccccc1`, for which the concentration at half-maximal activity (AC50) is 5.94 µM.
As for `O=C(C=Cc1cccc(O)c1)c1ccccc1O`, the concentration at half-maximal activity (AC50) is 2.1 µM.
Turning to `O=C(Nc1ccc(Br)c(C(F)(F)F)c1)c1ccccc1`, the AC50 was 4.78 µM.
Consider `O=S(=O)(CCSc1ccccn1)c1nc2ccccc2s1`, for which the AC50 is 7.49 µM.
Take `C=CCN(CC=C)C(=S)NC(=O)c1ccc(OC)c(Br)c1`: the half-maximal activity concentration (AC50) was 7.96 µM.
As to `Cc1ccc(C)c(/C=C/C(=O)c2ccccc(=O)c2O)c1`, the AC50 was 3.17 µM.
For the molecule `COc1ccccc1N(C)S(=O)(=O)c1ccc(Cl)c(C(=O)NNC(=O)c2ccccc2O)c1`, the half-maximal activity concentration (AC50) was 2.64 µM.
Consider `COc1ccc(O)c(C(=O)CC(=O)c2ccc(F)cc2)c1`, for which the AC50 was 0.977 µM.
With `O=[N+]([O-])c1cc2oc3c(c2c(C=NCc2ccccc2)c1O)CCCC3` the figure was 0.986 µM; with `CCN(CC)c1ccc(/C=N/NC(=O)c2c(Cl)cnn2C)c(O)c1`, 4.78 µM.
In the case of `O=[N+]([O-])c1ccc2c(OCc3nnc(-c4ccccc4Br)o3)ncnc2c1`, the concentration at half-maximal activity (AC50) was 6.17 µM.
Take `COc1cccc(CNC(=O)CSc2ccc(-c3ccccn3)nn2)c1`: the half-maximal activity concentration (AC50) is 5.07 µM.
With `CC(C)(C)c1ccc(C(=O)NC(=S)NNC(=O)c2cccs2)cc1` the figure was 1.89 µM.
Take `COc1ccc(O)c(C(=O)CC(=O)c2ccccc2C)c1`: the AC50 was 6.31 µM.
`[O-][n+]1cccc2c(Br)cc(Br)c(O)c21`: the concentration at half-maximal activity (AC50) is 2.69 µM.
As for `CNc1ccc2oc(C[C@H]3O[C@@]4(CC[C@H]3C)O[C@H]([C@H](C)C(=O)c3ccc[nH]3)[C@H](C)C[C@H]4C)nc2c1C(=O)O`, the figure is 0.662 µM.
`Cc1nc2ccc(C(=O)NCc3ccc4c(c3)OCO4)cc2s1`: the concentration at half-maximal activity (AC50) is 4.51 µM.
On to `O=C(Oc1c(Cl)cc(Cl)c2cccnc12)c1cccs1`, for which the AC50 is 1.94 µM.
On to `Cc1nn2c(-c3ccncc3)nnc2c2ccccc12`, for which the AC50 is 7.28 µM.
Regarding `Cc1cc(C)c(C(=O)CC(=O)c2cccnc2)c(C)c1`, the half-maximal activity concentration (AC50) was 2.06 µM.
As for `COc1ccc(/C=N/Nc2cc(C)nc(-n3nc(C)cc3C)n2)cc1`, the half-maximal activity concentration (AC50) is 5.99 µM.
As for `O=Cc1ccc(O)c2ncccc12`, the figure is 0.366 µM; as for `Cc1ccccc1OCC(O)Cn1c2ccccc2c2ccccc21` (configuration not stated), 4.74 µM.
For the molecule `Clc1ccc(-c2n[nH]c3c2CCC3)cc1Cl`, the AC50 is 5.64 µM.
Take `CC12CC3(C)CC(C)(C1)CC(NC(=O)N1CCCC1)(C2)C3`: the half-maximal activity concentration (AC50) was 1.7 µM.
In the case of `Cc1cc(C(=O)N/N=C/c2ccc(O)c(O)c2O)c(C)n1-c1ccccc1`, the AC50 was 3.41 µM.
As for `Cc1ccc(COc2ccc(Br)cc2/C=N/O)cc1`, the figure is 7.92 µM; as for `Cc1ccc(NC(=O)c2cc(N3C(=O)C=CC3=O)ccc2Cl)cc1C`, 1.63 µM; as for `CCOC(=O)c1ccc(N2C(=O)CC(N(C)CCc3ccc(OC)c(OC)c3)C2=O)cc1` (configuration not stated), 5.96 µM.
In the case of `Nc1cc2c3ccccc3ccc2c2ccccc12`, the concentration at half-maximal activity (AC50) is 2.13 µM.
Turning to `CN(C)c1ccc(C=c2c3ccccc3n3c2c2c([n+]3C)CCCC2)cc1`, the AC50 was 2.64 µM.
With `CCOC(=O)c1ccc(NC(=O)CC2OCCN(CC)C2=O)cc1` (configuration not stated) the figure was 4.89 µM.
Take `CCCCC(CC)c1nnc(NC(=O)c2cccs2)s1` (configuration not stated): the AC50 is 6.66 µM.
With `CC(=O)C1=C(c2ccc(Br)cc2)C(=O)c2ccccc2C1=O` the figure was 2.62 µM; with `Nc1cc2nc3ccccc3oc-2cc1=O`, 1.52 µM.
For the molecule `O=[N+]([O-])c1ccc(S(=O)Cc2ccccc2)c([N+](=O)[O-])c1` (configuration not stated), the concentration at half-maximal activity (AC50) was 1.75 µM.
With `C=CCNc1nc(-c2ccccn2)nnc1-c1ccccc1` the figure was 10.3 µM; with `CCCCCCCCCCOC(=O)Cn1c(COc2ccccc2)[n+](C)c2ccccc21`, > 12 µM (inactive); with `CC1(C)C=Cc2c(ccc3c2OC[C@@H](c2ccc(O)cc2O)C3)O1`, 5.69 µM.
As for `Cc1ccc(NC(=O)CN(C)C(=O)c2cccnc2Nc2cccc(C(F)(F)F)c2)cc1`, the figure is 4.74 µM.
With `Cc1ccc2c(c1C)-c1c(ccc(C)c1C)C(=O)C2=O` the figure was 1.48 µM; with `CCCCCCCc1ccc(-c2ccc(O)cc2)nc1`, 5.12 µM.
Consider `O/N=C(\c1ccc(Cl)cc1)c1cc2ccccc2o1`, for which the AC50 is 5.38 µM.
With `COc1ccc(-c2oc3ccccc3c2C#Cc2cncn2C)cc1`, the half-maximal activity concentration (AC50) is 4.94 µM.
For the molecule `CN(C)c1nc(-c2ccccn2)nnc1-c1ccccc1`, the concentration at half-maximal activity (AC50) was 5.25 µM.
With `O=[N+]([O-])c1cccc(C=NNc2ccc3ccccc3n2)c1O`, the concentration at half-maximal activity (AC50) is 1.69 µM.
As for `CCCOc1ccc(N2C(=O)CC(N3CCC(C(=O)OCC)CC3)C2=O)cc1` (configuration not stated), the concentration at half-maximal activity (AC50) is 6.34 µM.
In the case of `COc1ccc(-c2csc(NC(=O)c3ccccc3F)c2C(=O)O)cc1`, the concentration at half-maximal activity (AC50) was 3.69 µM.
As for `CCCCCCCn1c(=O)c(C(=O)OC)c(N)c2ccccc21`, the AC50 is 4.64 µM.
`Cc1[nH]n(-c2cccc3ccccc23)c(=O)c1/C=N/NC(=O)c1cccc([N+](=O)[O-])c1`: the AC50 is 1.48 µM.
As to `CCCS(=O)(=O)c1c(S(=O)(=O)CCC)c2c(C)cccn2c1C(=O)N/N=C/c1cc(O)cc(O)c1`, the AC50 was 3.51 µM.
As for `Cc1nc2c(o1)C(=O)c1ccccc1C2=Nc1ccccc1`, the figure is 5.02 µM; as for `CC(C)=CCc1c(O)ccc(C(=O)Cc2ccccc2)c1O`, 10.8 µM.
For the molecule `C(=C1c2ccccc2-c2ccccc21)c1ccncc1`, the AC50 was 6.18 µM.
For `O=[N+]([O-])c1cccc(-c2cc(-c3cc(Br)ccc3O)[nH]n2)c1`, the AC50 is 5.44 µM.
Take `O=S(=O)(Nc1nc2ccccc2nc1N1CCN(c2ccccn2)CC1)c1ccc(Cl)cc1`: the concentration at half-maximal activity (AC50) was 1.79 µM.
For `O=C(c1ccc(-c2ccccc2)cc1)C1CCCN(C(=O)c2cncs2)C1` (configuration not stated), the AC50 was 5.93 µM.
Consider `CCOC(=O)c1c2c(n(-c3ccc(OC)cc3)c1C)C(=O)C(=O)c1ccccc1-2`, for which the half-maximal activity concentration (AC50) was 3.97 µM.
As for `CC(NC(=S)NC1CCC(C(C)(C)C)CC1)c1ccccc1` (configuration not stated), the figure is 6.86 µM; as for `CC(=O)NC(c1ccc(C)cc1)c1cc([N+](=O)[O-])c2cccnc2c1O` (configuration not stated), 8.83 µM; as for `Cc1ccccc1Oc1nc(-c2ccccn2)nc2ccccc12`, 2.29 µM.
On to `Cc1ccc(Cl)cc1NC1=C/C(=N\S(=O)(=O)c2cccs2)c2ccccc2C1=O`, for which the half-maximal activity concentration (AC50) was 6.42 µM.
`O=C(Nc1nnc(-c2ccccc2)o1)c1ccc(Cl)cc1`: the AC50 was 1.84 µM.
For the molecule `O=CC1=C(c2ccccc2)Oc2ccccc2O1`, the half-maximal activity concentration (AC50) is 2.78 µM.
For `Cc1cccc(N2CCN(C(=O)C3COc4ccccc4O3)CC2)c1C` (configuration not stated), the AC50 is 6.72 µM.
In the case of `Cc1ccoc1C(=O)Nc1cccc(Oc2ccccc2)c1`, the AC50 is 2.85 µM.
For `N/C(Cc1ccc(Cl)cc1Cl)=N\OC(=O)c1ccccc1F`, the concentration at half-maximal activity (AC50) was 5.93 µM.
Turning to `O=C(NC1=CC(=O)c2ccccc2C1=O)c1ccccc1`, the AC50 was 7.77 µM.
As for `Cc1nnc(N/N=C/c2cccc(OCc3ccc(Cl)c(Cl)c3)c2)n1N`, the figure is > 12 µM (inactive).
Turning to `Cc1cc(NS(=O)(=O)c2ccc(C3CCCCC3)cc2)no1`, the AC50 was 5.38 µM.
Take `C(=N\Nc1nncc2ccccc12)/c1ccccn1`: the half-maximal activity concentration (AC50) is 4.74 µM.
In the case of `CCN(CC)c1ccc(/C=C/c2ccc3ccc(OC)cc3[n+]2CC)cc1`, the concentration at half-maximal activity (AC50) was 5.78 µM.
Consider `Oc1ccc(Br)cc1/C=N/Nc1ccccn1`, for which the AC50 was 5.39 µM.
As for `CCc1cc(SC#N)cc(C)c1NC(=O)CCl`, the AC50 was 4.4 µM.
As to `C=C(C)COc1ccc(-c2[nH]ncc2-c2ccccc2)c(O)c1`, the AC50 was 5.52 µM.
As for `S=C1SCN(Cc2cccnc2)CN1Cc1cccnc1`, the concentration at half-maximal activity (AC50) was 4.06 µM.
Regarding `COC(OC)c1ccc(C#N)c(SCc2ccccc2)n1`, the AC50 was 7.52 µM.
`COc1ccc(N(C(=O)c2ccncc2)S(=O)(=O)c2ccccc2)cc1`: the concentration at half-maximal activity (AC50) was 2.4 µM.
As for `O=C(Nc1cc(Oc2ccc(Cl)cc2)cc([N+](=O)[O-])c1)c1ccco1`, the AC50 was > 12 µM (inactive).
As for `Cc1cc(C)c(OCC(=O)Nc2nc(-c3ccccn3)cs2)c(C)c1`, the figure is 4.34 µM.
Consider `CC(C)(c1cc(Br)c(O)c(Br)c1)c1cc(Br)c(O)c(Br)c1`, for which the AC50 is 8.13 µM.
Turning to `Cc1ccc(C2(c3ccc(C)cc3)CC2C(=O)Nc2ccc([N+](=O)[O-])cc2O)cc1` (configuration not stated), the AC50 is 5.44 µM.
